Assay results from patent US9578878B2, “Antimicrobial efficacy of an oregano oil and caprylic acid blend” (Kemin Industries, Inc., priority 2014, dated 2017).

Assays:
A. brasiliensis = experiment: Zone of inhibition assay; format: cell-based, Aspergillus brasiliensis; conditions: 20 μL per 6 mm disk, 72 hrs, n = 3
Protocol: (§1) For assays to find minimum inhibitory concentrations, all treatments were diluted in 10% DMSO and 0.5% Tween 80 to stabilize the samples.
(§2) Microorganisms Escherichia coli (ATCC #8739), Streptococcus sanguinis (ATCC #BAA-1455), Salmonella enteria subsp. enterica (ex Kauffmann and Edwards) Le Minor and Popoff serovar Typhimurium (ATCC #14028), Staphylococcus aureus (ATCC #6538), Pseudomonas aeruginosa (ATCC #9027), and Candida albicans (ATCC #10231) were obtained from a −80° C. internal stock culture. Aspergillus brasiliensis (ATCC #16404) was obtained from an internal stock solution culture stored at 4° C. E. coli, S. enterica S. aureus, and P. aeruginosa were grown in tryptic soy broth (TSB) and incubated at 37° C. for 24 h. S. sanguinis was grown in brain heart infusion broth (BHI). A. brasiliensis was plated on Sabourand dextrose agar (SDA) and incubated at 25° C. for 5-7 days. C. albicans was grown in Sabourand dextrose broth (SDB) and incubated at 25° C. for 48 h.
(§3) A. brasiliensis was harvested by adding 18 mL sterile saline to the plate and agitating the mold from the agar with a sterile inoculating loop. The inoculum was collected upon agitation. All suspended microbes were diluted with the same type of broth media used to grow each organism until an inoculum in the range of 10^6 CFU/mL was achieved. The inoculum concentration was determined by plate count method. Each strain was identified by plating on the appropriate growth media, E. coli, S. aureus, and P. aeruginosa on tryptic soy agar (Bacto, BD Sciences, Manassas, Va.) and C. albicans and A. brasiliensis on Sabrouand dextrose agar, to ensure there was no contamination of the inoculum.
(§4) A zone of inhibition assay was used for A. brasiliensis and C. albicans. SDA was used as the plated medium. Inocula at 10^5 cfu/ml were prepared and counted using a Petroff-Hausser counting chamber. The diameter of no growth around a 6 mm blank disk after incubation at 25° C. for 72 hrs was compared to the untreated control. 20 μL of treatment was applied to each disk in triplicate. 10% DMSO was used as the control.

C. albicans = experiment: Zone of inhibition assay; format: cell-based, Candida albicans; conditions: 20 μL per 6 mm disk, 72 hrs, n = 3
Protocol: as §1, §2, §3, §4

CCCCCCCC(=O)O [Caprylic Acid, octanoic acid]
Inhibition Diameter, A. brasiliensis (A. brasiliensis; 0.9% treatment): 0 mm | Inhibition Diameter, A. brasiliensis (A. brasiliensis; 2.7% treatment): 0 mm | Inhibition Diameter, A. brasiliensis (A. brasiliensis; 4.5% treatment): 0 mm | Inhibition Diameter, C. albicans (C. albicans; 0.45% treatment): 3.5 mm | Inhibition Diameter, C. albicans (C. albicans; 0.9% treatment): 4.5 mm | Inhibition Diameter, C. albicans (C. albicans; 2.7% treatment): 24.5 mm
